Series [1] has as its system Leishmania donovani. The series is described as follows: Induction of cell cycle arrest in Leishmania donovani Ag83 promastigotes assessed as accumulation of cells in S/G2 phase at 5 uM by PI staining based flow cytometry. Format: functional, organism-based. The conditions noted are these: time 6-24 hrs.
A further series concerns the target T1, DNA topoisomerase I (Leishmania donovani (strain BPK282A1), UniProt E9BRC0).
T1 sequence (E9BRC0 whole entry): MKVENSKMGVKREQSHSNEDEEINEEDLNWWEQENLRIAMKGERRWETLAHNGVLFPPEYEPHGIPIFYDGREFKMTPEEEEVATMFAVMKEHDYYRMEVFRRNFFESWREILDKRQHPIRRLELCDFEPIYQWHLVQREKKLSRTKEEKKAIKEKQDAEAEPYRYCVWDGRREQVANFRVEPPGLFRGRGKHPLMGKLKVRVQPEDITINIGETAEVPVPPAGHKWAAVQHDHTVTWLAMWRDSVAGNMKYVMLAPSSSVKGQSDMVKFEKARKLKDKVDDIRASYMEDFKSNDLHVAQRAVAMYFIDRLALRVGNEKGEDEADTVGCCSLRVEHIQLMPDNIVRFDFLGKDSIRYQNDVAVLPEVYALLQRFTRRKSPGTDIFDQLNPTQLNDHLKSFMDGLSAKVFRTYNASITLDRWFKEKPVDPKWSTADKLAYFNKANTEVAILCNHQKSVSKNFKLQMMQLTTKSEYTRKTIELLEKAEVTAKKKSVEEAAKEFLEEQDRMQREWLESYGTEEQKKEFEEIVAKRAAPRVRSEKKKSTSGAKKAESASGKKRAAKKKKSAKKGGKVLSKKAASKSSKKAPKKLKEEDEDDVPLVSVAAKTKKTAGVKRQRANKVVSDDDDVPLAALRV
The series can be described thus: Inhibition of Leishmania donovani Top1 assessed as relaxation of supercoiled pBluescript SK(+) DNA measured by agarose gel electrophoresis analysis.

For series [2], the target named is T2, DNA topoisomerase I (Leishmania donovani (strain BPK282A1)) (UniProt E9BRC0).
T2 sequence (whole entry): T1 sequence (E9BRC0 whole entry)
The series is described as follows: Inhibition of recombinant Top1 in Leishmania donovani Ag83 whole cell extract assessed as relaxation of supercoiled pBluescript SK(+) DNA at 10 uM incubated for 30 mins by agarose gel electrophoresis analysis relative to control.

Series [3] deals with T2, DNA topoisomerase I (Leishmania donovani (strain BPK282A1)). The series is described as follows: Inhibition of recombinant Top1 in Leishmania donovani Ag83 whole cell extract preincubated with compound for 5 mins followed by plasmid DNA addition at 5 to 20 uM measured after 30 mins. The conditions noted are these: dose 5-20 µM.
For series [4] the target is unchanged. The series is described as follows: Binding affinity to topoisomerase I in Leishmania donovani Ag83 whole cell lysate assessed as stabilization of cleavage complex at 5 to 50 uM measured after 30 mins. It is filed as subcellular. The conditions noted are these: dose 5-50 µM.
Series [5] deals with Leishmania donovani. The series is described as follows: Induction of cell cycle arrest in Leishmania donovani Ag83 promastigotes assessed as decrease in accumulation of cells in G0/G1 phase at 5 uM measured after 12 hrs by PI staining based flow cytometry (reference value: 65.1%). Format: functional. Also on record: scale not given: the % may be the effect or the level left.

The subject of the next series is MCF7. The series can be described thus: Induction of cell cycle arrest in human MCF7 cells measured at 5 uM upto 24 hrs by PI staining based flow cytometry. Format: functional.
The subject of series [6] is Leishmania donovani. The series can be described thus: Induction of apoptosis in Leishmania donovani Ag83 promastigotes assessed as DNA break accumulation measured at 5 uM after 24 hrs by TUNEL staining based assay. Format: functional, organism-based.
For series [7], the system named is Leishmania donovani. The series is described as follows: Induction of apoptosis in Leishmania donovani Ag83 promastigotes assessed as late apoptotic cells measured at 5 uM after 24 hrs by Annexin V-FITC/PI staining based flow cytometric analysis (reference value: 0.1%). It is filed as functional.
The test system of series [8] is Leishmania donovani. The series can be described thus: Antileishmanial activity in Leishmania donovani Ag83 promastigotes assessed as Top1cc-induced DNA breakdown by measuring TUNEL positive cells by confocal microscopic analysis. Format: functional, organism-based. The settings on record: time 6-12 hrs, TDE = time-dependent effect.
Series [9] has as its system Leishmania donovani. The series can be described thus: Antileishmanial activity in Leishmania donovani Ag83 promastigotes assessed as fold change in persistent Top1cc-induced DNA breakdown by measuring TUNEL positive cells treated for 6 to 12 hrs followed by compound removal measured after 6 to 12 hrs by confocal microscopic analysis relative to camptothecin. Format: functional. The conditions noted are these: time 6-12 hrs.

For series [10], the target named is T2, DNA topoisomerase I (Leishmania donovani (strain BPK282A1)). The series is described as follows: Binding affinity to antimony resistant Leishmania donovani BHU575 promastigotes recombinant topoisomerase I assessed as stabilization of cleavage complex at 5 to 50 uM measured after 30 mins. The settings on record: dose 5-50 µM.
For series [11] the target is unchanged. The series can be described thus: Binding affinity to antimony resistant Leishmania donovani BHU575 promastigotes recombinant topoisomerase I assessed as fold change in stabilization of cleavage complex at 5 to 50 uM measured after 30 mins relative to camptothecin. The settings on record: dose 5-50 µM.
In series [12] the test system is Leishmania donovani. The series is described as follows: Antileishmanial activity in Leishmania donovani BHU575 promastigotes assessed as TUNEL positive cells at 5 uM measured after 24 hrs by confocal microscopic analysis relative to control. Format: functional.
For series [13], the system named is Leishmania donovani. The series is described as follows: Induction of cell cycle arrest in antimony resistant Leishmania donovani BHU575 promastigotes assessed as decrease in accumulation of cells in G0/G1 phase at 5 uM measured after 6 hrs by PI staining based flow cytometry (reference value: 80.7%). It is filed as functional. Also on record: scale not given: the % may be the effect or the level left.

The subject of series [14] is Leishmania donovani. The series is described as follows: Induction of cell cycle arrest in antimony resistant Leishmania donovani BHU575 promastigotes assessed as decrease in accumulation of cells in G0/G1 phase at 5 uM measured after 24 hrs by PI staining based flow cytometry (reference value: 80.7%). More on the design: scale not given: the % may be the effect or the level left. It is filed as functional.

Series [15] has as its system Leishmania donovani. The series can be described thus: Induction of cell cycle arrest in antimony resistant Leishmania donovani BHU575 promastigotes assessed as decrease in accumulation of cells in S phase at 5 uM measured after 12 hrs by PI staining based flow cytometry (reference value: 9.8%). Format: functional. Also on record: scale not given: the % may be the effect or the level left.

In series [16] the test system is Leishmania donovani. The series can be described thus: Antileishmanial activity against antimony resistant Leishmania donovani BHU575 promastigotes infected in BALB/c mouse assessed as reduction of macrophage at 1 to 10 uM infection by propidium iodide staining analysis. Format: functional, organism-based. The conditions noted are these: dose 1-10 µM, time 72-96 hrs, TDE = time-dependent effect.

The subject of series [17] is Leishmania donovani. The series can be described thus: Antileishmanial activity against Leishmania donovani Ag83 amastigotes infected in BALB/c mouse macrophage assessed as cell viability measured after 48 hrs infection by propidium iodide staining analysis relative to control. Format: functional, organism-based. The conditions noted are these: Ag83, 48 h.
Series [18] can be described thus: Toxicity in BALB/c mouse infected with Antimony resistant Leishmania donovani BHU575 promastigotes assessed as change in body weight treated after 3 weeks of infection at 5 to 10 mg/kg, ip twice a week for 3 weeks. It is filed as organism-based. The settings on record: in vivo, dose 5-10 mg/kg.
Series [19] deals with Leishmania donovani. The series is described as follows: Antileishmanial activity against antimony resistant Leishmania donovani BHU575 promastigotes infected in BALB/c mouse assessed as reduction of amastigote burden in spleen treated after 3 weeks of infection at 5 to 10 mg/kg, ip twice a week for 3 weeks by Giemsa staining stamp-smear based limiting dilution assay. It is filed as functional, organism-based. The conditions noted are these: dose 5-10 mg/kg.

Series [20] has as its system Leishmania donovani. The series is described as follows: Antileishmanial activity against Leishmania donovani Ag83 promastigotes infected in BALB/c mouse assessed as reduction of amastigote burden by measuring parasite count in liver treated after 3 weeks of infection at 5 to 10 mg/kg, ip twice a week for 3 weeks by qPCR based kineto-plastid DNA. The settings on record: dose 5-10 mg/kg. It is filed as functional, organism-based.

Series [21] concerns Leishmania donovani. The series can be described thus: Antileishmanial activity against Leishmania donovani Ag83 promastigotes infected in BALB/c mouse model of visceral leishmaniasis assessed as fold change in T-helper type 1 immunological evoke response in splenocytes by measuring increased IFN-gamma cytokine level treated after 3 weeks of infection at 10 mg/kg, ip twice a week for 3 weeks by RT-PCR analysis. It is filed as functional.

The source made the active and inactive calls. No cut-off for these calls is given here.

Consider `COc1cc(-c2nc3ccccc3c3nc4ccccn4c23)cc(OC)c1OC`, for which the Activity entry with Leishmania donovani [1] is “Dose-Dependent Effect”; in the series on Leishmania donovani [5], 40.7%; with Leishmania donovani [7], 70.6%; in the series with Leishmania donovani [8], “Tde”; in the series with Leishmania donovani [12] it was 85%; with Leishmania donovani [13], 70.8%. In addition, the Activity in the series on Leishmania donovani [14] is 38%; in the series with Leishmania donovani [15], 23.7%; in the series with Leishmania donovani [16] it was “Tde”; in series [18] it was “Non-Toxic”. In addition, the concentration for half-maximal inhibition (IC50) at DNA topoisomerase I is 3.75 µM. The inhibition in series [2] is 85%. Besides, the inhibition result in [3] is “inactive”. Moreover, the outcome (in [4]; with Leishmania donovani [6]; in series [10]; in the series on Leishmania donovani [19]; in the series with Leishmania donovani [20]) was Active. Further, in the series with MCF7, the outcome was inactive. The “fold change (FC)” value in the series with Leishmania donovani [9] turned out to be 3; in series [11], 5; in the series on Leishmania donovani [21], 5.5. In the series on Leishmania donovani [17], the EC50 amounted to 2.5 µM.

For the origin of these results see ChEMBL document CHEMBL5316350, “Novel Pyrido[2',1':2,3]imidazo[4,5-c]quinoline Derivative Selectively Poisons Leishmania donovani Bisubunit Topoisomerase 1 to Inhibit the Antimony-Resistant Leishmania Infection in Vivo” (J Med Chem, 2023).
